Read-outs that look alike come from different tables or passages of the source.
System: FD (familial dysautomonia) IKBKAP minigene, exon 20 inclusion, in HEK293T cells
Assay: Primary splicing assay (FD IKBKAP minigene, Firefly/Renilla luciferase reporter in HEK293T)
Format: cell-based, human
Settings: Homo sapiens, HEK-293T; for EC (maximum kinetin efficacy): HEK293T, read-out: ECk (compound concentration at which the maximum kinetin efficacy (200 μM) is reached)
Description: As used herein, the expression “ECk” refers to the compound concentration at which the maximum kinetin efficacy (200 μM) is reached.
Splicing analysis was made possible by using an FD (familial dysautomonia) IKBKAP minigene which contained exon 19 through exon 21, including intervening introns, and also the T→C Thymine to cytosine transition located 6 base-pairs from the end of IKBKAP exon 20; See SEQ ID NO:3 for the complete sequence of plasmid pcDNA3.1/V5HisTOPO with Renilla-Familial Dysautonomia minigene-Firefly. Firefly luciferase (SEQ ID NO:14) was utilized as a splicing reporter, located downstream of exon 21, and Renilla luciferase (SEQ ID NO:13) was used as a control, located upstream of exon 19. The sequence of exon 19 is presented as SEQ ID NO:7; the Intron between Exon 19 and Exon 20 is SEQ ID NO:8; exon 20 is SEQ ID NO:9; the intron between […]; exon 21 is SEQ ID NO: 11, and the spliced sequence of exons 19-20-21 is SEQ ID NO:12. HEK293T cells were plated in a 6-well plate 24 hours prior to transfection. Transfection was carried out using a mixture of Opti-MEM (GIBCO ref. 31985), IKBKAP minigene, and Fugene HID (PROMEGA ref. E2311), incubated in DMEM media containing HEK293T cells at 37° C. The ratio of Opti-MEM, minigene, and Fugene was kept at approximately 9:1.5:1, with a total volume of 150 μL of transfection mixture applied per well.
After 4 hours of transfection, the cells were then plated in a 96-well plate coated with poly-L-lysine (SIGMA cat.P4707) for treatment scheduled 24 hours later. […] After 24 hours of treatment, cells were washed in the poly-L-lysine coated 96-well plate using PBS and subsequently harvested using Passive Lysis Buffer (Promega cat.E196). Cell lysate was transferred to a black and white 96-well plate and analyzed for splicing correction using a Glomax luminometer (PROMEGA GloMax® 96 Microplate Luminometer w/Dual Injectors cat.E6521) and Promega Dual Glo Firefly and Stop and Glo Renilla reagents (Cat.E196). The compound's ability to correct splicing and promote exon 20 inclusion was marked by an increase in Firefly signal. Renilla signal, which is independent of exon 20 inclusion, was used to correct for cell number. Using the ratio of Firefly to Renilla signal, a dose response curve was produced, which referenced kinetin and DMSO Firefly/Renilla ratios as positive and negative controls, respectively.

[1] = max efficacy in Primary Assay, Firefly/Renilla ratio, kinetin and DMSO as positive and negative controls, 24 hours of treatment, read-out: Emax (%)
[2] = Firefly/Renilla ratio, 24 hours of treatment

Row | Compound | Emax [1] [%] | EC (maximum kinetin efficacy) [2] [µM] | also measured
1 | CN(C)Cc1c[nH]c2nc(Cl)nc(NCc3ccco3)c12 [(180)] | 28 | – | –
2 | Clc1nc(NCc2cscn2)c2nc(OC3COC3)[nH]c2n1 [(497)] | 120 | 5.56 | –
3 | N#Cc1c[nH]c2nc(Cl)nc(NCc3nccs3)c12 [(148)] | 62 | – | –
4 | CNCCn1ccc2c(NCc3ccco3)nc(Cl)nc21 [(213)] | 36 | – | –
5 | Clc1nc(NCc2nccs2)c2nc(OC[C@@H]3CCOC3)[nH]c2n1 [(473)] | 130 | 2.1 | –
6 | CC(Nc1nc(Cl)nc2[nH]ccc12)c1ccncc1 (stereo not shown) [(359)] | 31.5 | – | –
7 | Clc1cc(NCc2ccco2)c2nc[nH]c2n1 [(198)] | 125 | 5.01 | –
8 | Fc1nc(NCc2ccncc2)c2nc[nH]c2n1 [(371)] | 82 | – | –
9 | FC(F)(F)COc1nc2c(NCc3cscn3)nc(Cl)nc2[nH]1 [(392)] | 134 | 1.9 | –
10 | OCCn1cc(F)c2c(NCc3nccs3)nc(Cl)nc21 [(130)] | 201 | 8.9 | –
11 | CC(C)(C)COc1nc2c(NCc3ccco3)nc(Cl)nc2[nH]1 [(478)] | 84.1 | – | –
12 | Clc1cc(NCc2ccco2)n2nccc2n1 [(322)] | 21 | – | –
13 | COc1cccc(Nc2nc(Cl)nc3[nH]cnc23)c1 [(383)] | 30.3 | – | –
14 | FC(F)COc1nc2c(NCc3ccncc3)nc(Cl)nc2[nH]1 [(382)] | 193 | 1.31 | –
15 | CNOc1nc2c(NCc3ccco3)nc(Cl)nc2[nH]1 [(280)] | 25 | – | –
16 | CCCOc1nc2c(NCc3ccco3)nc(Cl)nc2n1CCO [(306)] | 247 | 0.7 | –
17 | Fc1nc(NCc2ccncc2)c2cc[nH]c2n1 [(380)] | 108 | 4.38 | –
18 | Cn1cnc2nc(Cl)nc(NCc3ccncc3)c21 [(313)] | 102 | 7.48 | –
19 | Clc1cccc(CNc2ncnc3[nH]cnc23)c1 [(415)] | 10.9 | – | –
20 | CC(=O)NCCOc1nc2c(NCc3nccs3)nc(Cl)nc2[nH]1 [(397)] | 26.3 | – | –

Row | Compound | Emax [1] [%] | EC (maximum kinetin efficacy) [2] [µM] | also measured
21 | O[C@@H]1C=C[C@H](n2ccc3c(NCc4ccco4)nc(Cl)nc32)C1 [(139)] | – | – | Emax (max efficacy, value marked (RT-PCR), footnote a: Firefly inhibitor, read-out: Emax (%) (RT-PCR)): 52.2%
22 | Cc1cn(CCO)c2nc(Cl)nc(NCc3ccncc3)c12 [(121)] | 189 | 17.3 | –
23 | Cc1cc(CNc2nc(Cl)nc3[nH]ccc23)ccn1 [(189)] | 33 | – | –
24 | Clc1nc(NCc2ccco2)c2nc(-c3cccnc3)[nH]c2n1 [(88)] | 33 | – | –
25 | C[C@@H](Nc1ncnc2[nH]cnc12)c1ccco1 [(411)] | 55 | – | –
26 | O=C1Cc2c(NCc3ccncc3)nc(Cl)nc2N1 [(257)] | 62 | – | –
27 | O=C(NCCO)c1cc2c(NCc3ccco3)nc(Cl)nc2[nH]1 [(221)] | 86 | – | –
28 | OCCn1cc(F)c2c(NCc3ccncc3)nc(Cl)nc21 [(135)] | 194 | 9.06 | –
29 | CC(F)(F)COc1nc2c(NCc3cscn3)nc(Cl)nc2[nH]1 [(496)] | 233 | 1.03 | –
30 | O=C(O)COc1nc2c(NCc3nccs3)nc(Cl)nc2[nH]1 [(511)] | 35.1 | – | –
31 | c1cc(CNc2ncnc3[nH]cnc23)ncn1 [(68)] | 62 | – | –
32 | Clc1nc(NCc2cc3ccccc3o2)c2nc[nH]c2n1 [(164)] | 68 | – | –
33 | CC(=O)NCCn1ccc2c(NCc3ccco3)nc(Cl)nc21 [(203)] | – | – | Emax (max efficacy in Primary Assay, value flagged footnote a: Firefly inhibitor, read-out: Emax (%)): 27%
34 | FC(F)(F)COc1nc2c(NCc3ccncc3)nc(Cl)nc2[nH]1 [(299)] | 216 | 1.3 | –
35 | Cc1cnccc1CNc1nc(Cl)nc2[nH]ccc12 [(263)] | 105 | 27.4 | –
36 | Ic1nc(NCc2ccco2)c2nc[nH]c2n1 [(264)] | 44 | – | –
37 | Clc1nc(NCc2ccccn2)c2cc[nH]c2n1 [(350)] | 49.5 | – | –
38 | Clc1nc(NCc2nccs2)c2nc(OCCOc3ccccc3)[nH]c2n1 [(401)] | 41.2 | – | –
39 | CNc1nc2c(NCc3ccncn3)nc(Cl)nc2[nH]1 [(247)] | 215 | 5.41 | –
40 | Clc1nc(NCc2cncs2)c2cc[nH]c2n1 [(373)] | 25.1 | – | –

Source: patent US11702417B2, “Compounds for improving mRNA splicing” (The General Hospital Corporation, priority 2015, dated 2023)
